Source: US20110117588A1, “METHOD OF PREDICTING DRUG-INDUCED PHOSPHOLIPIDOSIS” (KYUSHU UNIVERSITY, NATIONAL UNIVERSITY CORPORATION, priority 2007, published 2011)
Like-named read-outs stand apart in the source and are kept apart here.

Assays:
NRK cells [1] = experiment: Localization of MPR in NRK cells by confocal laser microscope with antibody; details: 24 hr exposure, concentration at which localization altered
NRK cells [2] = experiment: Intracellular and extracellular cathepsin D and cathepsin L levels by Western blotting; assay type: cell-based, rat
Procedure: In the case of cathepsin D (CTD), it is biosynthesized as an about 45 kDa proenzyme in rat cell (NRK), and processed in the acidic environment of lysosome to become an about 43 kDa mature enzyme.
Therefore, NRK cells were exposed to 0 (control), 5, 10, 20, 40 and 80 μM of AD for 24 hr, and lysosomal enzyme (CTD and cathepsin L (CTL)) levels in the cell and medium were measured by Western blotting using an antibody to these enzymes. To be specific, immunoprecipitates against anti-CTD antibody in cell lysate and medium or the cell lysate and medium for CTL were subjected to Western blot analysis using an anti-CTD antibody or anti-CTL antibody. […] Therefore, it was also shown that increased lysosomal enzyme in the medium was not caused by extracellular leakage due to cell damage and the like, but by selective extracellular secretion thereof.
(§1) On the other hand, CTL is biosynthesized as an about 39 kDa proenzyme, and converted to a 30 kDa single strand intermediate enzyme and a 23 kDa and 7 kDa double stranded mature enzyme during the process of intracellular transport. […] While CTD increased the enzyme activity in the medium in an AD dose-dependent manner, CTL caused no change. The reason therefor is considered to be the measurement of CTD activity at pH 4.0 where autocatalytic processing occurs, and the measurement of CTL activity at pH 6.0 where processing scarcely occurs.

NRK cells [3] = experiment: β-hexosaminidase activity in the medium after exposure of NRK cells
Source text: On the other hand, the activity of lysosomal enzyme can be measured using an activity measurement method by known per se for each enzyme. For example, lysosomal enzyme can be quantified by contacting a sample with a substrate compound for a lysosomal enzyme, which emits fluorescence or develops color by an enzyme reaction, and measuring the intensity of the resulting fluorescence or developed color by a fluorometer, spectrophotometer and the like. For example, as a measurement method of β-hexosaminidase, β-galactosidase, β-glucuronidase or β-mannosidase, the method described in The EMBO Journal, 12: 5219-5223 (1993) can be mentioned, as a measurement method of cathepsin D, the method described in J. Biochem, 125: 1137-1143 (1999) can be mentioned, and as a measurement method of cathepsin B/L, the method described in Methods in Enzymology, 80: 535-561 (1981) can be mentioned.
Furthermore, the activity of β-hexosaminidase in the medium was measured by a conventional method.

NRK cells [4] = system: NRK cells
NRK cells [5] = experiment: Swelling of late endosome/lysosome (LGP85 staining) and phospholipid accumulation (Nile Red) in NRK cells; assay type: cell-based, rat
Procedure: The cells were cultured in a DMEM medium supplemented with lipoprotein-deficient serum to 10% instead of normal fetal bovine serum, and morphological changes of lysosome and the presence or absence of phospholipid accumulation due to exposure to AD under the conditions free of extracellular supply of lipoprotein were examined.

NRK cells [6] = experiment: Extracellular and intracellular lysosomal enzyme activity after exposure of NRK cells; assay type: cell-based, rat; details: 24 hr
Procedure: NRK cells were exposed to 0 (solvent control), 5, 10, 20, 40 and 80 μM of AD for 24 hr, and lysosomal enzyme activities in the cell and medium were measured by a conventional method.
as §1

NRK cells [7] = experiment: Intracellular LC3 level by Western blotting and confocal microscopy; assay type: cell-based; details: 20 μM; for LC3-II level: Western blot
Procedure: NRK cells were exposed to 20 μM of AD for 1, 3, 6, 12 and 24 hr, and the level of LC3 (microtuble-associated protein 1 light chain 3), which is an autophagy marker, in each cell was measured by Western blotting using an antibody to the protein. That is, cell lysate was subjected to Western blot analysis using an anti-LC3 antibody.
NRK cells were exposed to various PLIDs for 24 hr, and the intracellular level of LC3 was measured by western blotting.

With `Cl.N` [NH4Cl, ammonium chloride] the “alteration of MPR localization” value (NRK cells [1]) was over 5 mM, the “ratio of intracellular cathepsin D proenzyme” value (NRK cells [2]; NRK cells, 24 hr, Western blot of cell lysate immunoprecipitate) was “the ratio of intracellular proenzyme increased” and the “cathepsin D proenzyme in the medium” value (NRK cells [2]; NRK cells, 24 hr, Western blot of medium immunoprecipitate) was “the amount of proenzyme secreted in the medium increased”. It also gave a β-hex activity increase (NRK cells [3]; NRK cells, 24 hr exposure, concentration at which β-hexosaminidase activity in medium increased) of over 1000 µM.
With `CCN(CC)CCO[C@H]1CC[C@@]2(C)C(=CC[C@@H]3[C@@H]2CC[C@]2(C)C(=O)CC[C@@H]32)C1` [U18666A] the “alteration of MPR localization” value (NRK cells [4]; rat, 24 h) was 3 µg/mL and the β-hex activity increase (NRK cells [3]; rat, 24 h) was 3 µg/mL.
`CCCCc1oc2ccccc2c1C(=O)c1cc(I)c(OCCN(CC)CC)c(I)c1` [amiodarone] was tested, and the “alteration of MPR localization” value (NRK cells [4]) was “altered”, the “alteration of MPR localization” value (NRK cells [4]; rat, 24 h) was over 10 µM and the accumulation of phospholipid (NRK cells [5]; NRK cells in DMEM with 10% lipoprotein-deficient serum) was “accumulation of phospholipid was found at the site”. The “late endosome/lysosome morphology (LGP85)” value (NRK cells [5]; NRK cells in DMEM with 10% lipoprotein-deficient serum, various concentrations, 24 hr) was “enlargement of late endosome/lysosome occurred in an AD dose-dependent manner”, the “accumulation of phospholipid (Nile Red staining)” value (NRK cells [5]; NRK cells, 24 hr exposure) was “accumulation of phospholipid was found” and the “late endosome/lysosome morphology (LGP85 antibody)” value (NRK cells [5]; NRK cells, 24 hr exposure) was “enlarged”. The “activity of α-glucosidase (endoplasmic reticulum enzyme)” value (NRK cells [6]; 5-80 μM) was “changed only at 80 μM”, the “intracellular lysosomal enzyme activity” value (NRK cells [6]; 5-80 μM) was “decreased” and the “lysosomal enzyme activity in the medium” value (NRK cells [6]; 5-80 μM) was “increased in an AD dose-dependent manner”. The “CTL activity in the medium” value (NRK cells [6]; 5-80 μM, measured at pH 6.0) was “changed only at 80 μM”, the “intracellular CTL activity” value (NRK cells [6]; 5-80 μM, measured at pH 6.0) was “decreased in a dose-dependent manner” and the concentration showing cytotoxicity (NRK cells [6]) was 80 µM. The “granular staining with LC3 in the cell” value (NRK cells [7]; 1-24 hr, confocal laser microscope) was “increased in a time-dependent manner”, the LC3-II level (NRK cells [7]; 12 and 24 hr) was “remarkably increased” and the LC3-II level (NRK cells [7]; 3 hr) was “increased”. The “CTL proenzyme in the medium” value (NRK cells [2]) was “only proenzyme increased in an AD dose-dependent manner”, the “cathepsin D proenzyme in the medium” value (NRK cells [2]) was “only proenzyme increased in an AD dose-dependent manner” and the “ratio of CTL mature enzyme in the cell” value (NRK cells [2]) was “decreased in an AD dose-dependent manner”. The “ratio of CTL proenzyme in the cell” value (NRK cells [2]) was “the ratio of proenzyme increased”, the “ratio of intracellular cathepsin D proenzyme” value (NRK cells [2]) was “increased in a dose-dependent manner” and the β-hex activity increase (NRK cells [3]; rat, 24 h) was over 10 µM.
With `CC1(C)S[C@@H]2[C@H](NC(=O)[C@H](N)c3ccc(O)cc3)C(=O)N2[C@H]1C(=O)O` [amoxicillin] the “alteration of MPR localization” value (NRK cells [4]) was “none” and the β-hex activity increase (NRK cells [3]) was “none”.
In the case of `CC(=O)Oc1ccccc1C(=O)O` [aspirin], the “alteration of MPR localization” value (NRK cells [4]) is reported as “none” and the β-hex activity increase (NRK cells [3]) is reported as “none”.
With `C[C@H](CS)C(=O)N1CCC[C@H]1C(=O)O` [captopril] the β-hex activity increase (NRK cells [3]) was “none”.
With `CCN(CC)CCCC(C)Nc1ccnc2cc(Cl)ccc12` (stereo not drawn) [chloroquine] the “alteration of MPR localization” value (NRK cells [4]; rat, 24 h) was over 5 µM, the “cathepsin D proenzyme in the medium” value (NRK cells [2]) was “the amount of proenzyme secreted in the medium increased” and the “ratio of intracellular cathepsin D proenzyme” value (NRK cells [2]) was “the ratio of intracellular proenzyme increased”. For the same compound, the β-hex activity increase (NRK cells [3]; rat, 24 h) was over 5 µM.
`CN(C)CCCN1c2ccccc2Sc2ccc(Cl)cc21` [chlorpromazine] gave a β-hex activity increase (NRK cells [3]; rat, 24 h) of 20 µM.
`CC[C@H]1OC(=O)[C@H](C)[C@@H](O[C@H]2C[C@@](C)(OC)[C@@H](O)[C@H](C)O2)[C@H](C)[C@@H](O[C@@H]2O[C@H](C)C[C@H](N(C)C)[C@H]2O)[C@](C)(O)C[C@@H](C)C(=O)[C@H](C)[C@@H](O)[C@]1(C)O` [erythromycin] was tested, and the β-hex activity increase (NRK cells [3]; rat, 24 h) was over 400 µM.
`O=C(CCCN1CCC(O)(c2ccc(Cl)cc2)CC1)c1ccc(F)cc1` [haloperidol] was tested, and the “alteration of MPR localization” value (NRK cells [4]; rat, 24 h) was over 20 µM and the β-hex activity increase (NRK cells [3]; rat, 24 h) was over 10 µM.
With `CN(C)CCCN1c2ccccc2CCc2ccccc21` [imipramine] the β-hex activity increase (NRK cells [3]; rat, 24 h) was over 40 µM.
In the case of `CNCCCC12CCC(c3ccccc31)c1ccccc12` [maprotiline], the “alteration of MPR localization” value (NRK cells [4]; rat, 24 h) is reported as 20 µM and the β-hex activity increase (NRK cells [3]; rat, 24 h) is reported as over 20 µM.
For `C1CCC(C(CC2CCCCN2)C2CCCCC2)CC1` (stereo not drawn) [perhexiline], the “alteration of MPR localization” value (NRK cells [4]; rat, 24 h) was 2.5 µM and the β-hex activity increase (NRK cells [3]; rat, 24 h) was 5 µM.
In the case of `C=C[C@H]1C[N@@]2CC[C@H]1C[C@@H]2[C@@H](O)c1ccnc2ccc(OC)cc12` [quinidine], the β-hex activity increase (NRK cells [3]; rat, 24 h) is reported as 100 µM.
In the case of `CC/C(=C(\c1ccccc1)c1ccc(OCCN(C)C)cc1)c1ccccc1` [tamoxifen], the “alteration of MPR localization” value (NRK cells [4]; rat, 24 h) is reported as 10 µM and the β-hex activity increase (NRK cells [3]; rat, 24 h) is reported as over 10 µM.
With `CSc1ccc2c(c1)N(CCC1CCCCN1C)c1ccccc1S2` (stereo not drawn) [thioridazine] the “alteration of MPR localization” value (NRK cells [4]; rat, 24 h) was 10 µM and the β-hex activity increase (NRK cells [3]; rat, 24 h) was 10 µM.
For `CCN(CC)CCOc1ccc2c(c1)C(=O)c1cc(OCCN(CC)CC)ccc1-2` [tilorone], the “alteration of MPR localization” value (NRK cells [4]; rat, 24 h) was over 5 µM, the “cathepsin D proenzyme in the medium” value (NRK cells [2]) was “the amount of proenzyme secreted in the medium increased” and the “ratio of intracellular cathepsin D proenzyme” value (NRK cells [2]) was “the ratio of intracellular proenzyme increased”. For the same compound, the β-hex activity increase (NRK cells [3]; rat, 24 h) was over 2.5 µM.
